Test results: patent US6395684B1, “Selective herbicides based on a substituted phenyl sulfonyl amino carbonyl triazolinone” (Bayer Aktiengesellschaft, priority 1998, dated 2002)
Counter-ions that a name gives are not always drawn.

Key:
Format in all cases: in vivo
Bromus [1] = assay: Post-emergence test/greenhouse; settings: greenhouse, after three weeks
Description: (§1) Post-emergence Test/greenhouse Solvent: 5 parts by weight of acetone Emulsifier: 1 part by weight of alkylaryl polyglycol ether To produce a suitable preparation of active compound, 1 part by weight of active compound is mixed with the stated amount of solvent, the stated amount of emulsifier is added and the concentrate is diluted with water to the desired concentration. Test plants which have a height of 5-15 cm are sprayed with the preparation of active compound such that the particular amounts of active compound desired are applied per unit area. The concentration of the spray liquor is chosen so that the particular amounts of active compound desired are applied in 500 l of water/ha. After three weeks, the degree of damage to the plants is assessed in % damage in comparison to the development of the untreated control. The figures denote: 0%=no effect (like untreated control) 100% total destruction

Wheat [2] = assay: Post-emergence test/greenhouse; settings: greenhouse; for degree of damage to the plants (% damage in comparison to the untreated control): Wheat, after three weeks; for compatibility with crop plants (wheat), in words: sodium salt of (I) at 60 g/ha
Description: as §1

Lolium [3] = assay: Post-emergence test/greenhouse; settings: greenhouse, after three weeks
Description: as §1

Agropyron [4] = assay: Post-emergence test/greenhouse; settings: greenhouse, after three weeks
Description: as §1

Alopecurus [5] = assay: Post-emergence test/greenhouse; settings: greenhouse, after three weeks
Description: as §1

Avena [6] = assay: Post-emergence test/greenhouse; settings: greenhouse, after three weeks
Description: as §1

Sinapis = assay: Pre-emergence test/greenhouse; settings: 15 g ai./ha, greenhouse, after three weeks
Description: (§2) Pre-emergence Test/greenhouse Solvent: 5 parts by weight of acetone Emulsifier: 1 part by weight of alkylaryl polyglycol ether To produce a suitable preparation of active compound, 1 part by weight of active compound is mixed with the stated amount of solvent, the stated amount of emulsifier is added and the concentrate is diluted with water to the desired concentration. Seeds of the test plants are sown in normal soil. After about 24 hours, the soil is sprayed with the preparation of active compound such that the particular amount of active compound desired is applied per unit area. The concentration of the spray liquor is chosen so that the particular amount of active compound desired is applied in 500 litres of water per hectare. After three weeks, the degree of damage to the plants is tested in % damage in comparison to the development of the untreated control. The figures denote: 0% no effect (like untreated control) 100%=total destruction

Wheat [7] = assay: Pre-emergence test/greenhouse; settings: greenhouse; for degree of damage to the plants (% damage in comparison to the untreated control): Wheat, after three weeks
Description: as §2

Amaranthus = assay: Pre-emergence test/greenhouse; settings: 15 g ai./ha, greenhouse, after three weeks
Description: as §2

Agropyron [8] = assay: Pre-emergence test/greenhouse; settings: 15 g ai./ha, greenhouse, after three weeks
Description: as §2

Poa = assay: Pre-emergence test/greenhouse; settings: 15 g ai./ha, greenhouse, after three weeks
Description: as §2

Avena [9] = assay: Pre-emergence test/greenhouse; settings: greenhouse, after three weeks
Description: as §2

[10] = system: weeds, such as, for example, Agropyron, Alopecurus, Avena, Bromus and Lolium; assay: Post-emergence test/greenhouse, summary for weeds; settings: greenhouse
Description: Post-emergence Test/greenhouse Solvent: 5 parts by weight of acetone Emulsifier: 1 part by weight of alkylaryl polyglycol ether To produce a suitable preparation of active compound, 1 part by weight of active compound is mixed with the stated amount of solvent, the stated amount of emulsifier is added and the concentrate is diluted with water to the desired concentration. Test plants which have a height of 5-15 cm are sprayed with the preparation of active compound such that the particular amounts of active compound desired are applied per unit area. The concentration of the spray liquor is chosen so that the particular amounts of active compound desired are applied in 500 l of water/ha. After three weeks, the degree of damage to the plants is assessed in % damage in comparison to the development of the untreated control. […] [“ai.”=“active ingredient”].

[11] = system: weeds, such as, for example, Agropyron, Alopecurus, Avena, Bromus, Lolium, Poa, Setaria and Sinapis; assay: Pre-emergence test/greenhouse, summary for weeds; settings: greenhouse
Description: as §2, with “control.” for “control. The figures denote: 0% no effect (like untreated control) 100%=total destruction”

Bromus [12] = assay: Pre-emergence test/greenhouse; settings: greenhouse, after three weeks
Description: as §2

Setaria = assay: Pre-emergence test/greenhouse; settings: 500 g ai./ha, greenhouse, after three weeks
Description: as §2

Lolium [13] = assay: Pre-emergence test/greenhouse; settings: 500 g ai./ha, greenhouse, after three weeks
Description: as §2

Alopecurus [14] = assay: Pre-emergence test/greenhouse; settings: greenhouse, after three weeks
Description: as §2

SMILES | compatibility with crop plants (wheat), in words (Wheat [2]) | degree of damage to the plants (% damage in comparison to the untreated control) (Sinapis) | degree of damage to the plants (% damage in comparison to the untreated control) (Wheat [7]; 15 g ai./ha) | degree of damage to the plants (% damage in comparison to the untreated control) (Amaranthus) | degree of damage to the plants (% damage in comparison to the untreated control) (Agropyron [8]) | degree of damage to the plants (% damage in comparison to the untreated control) (Poa) | degree of damage to the plants (% damage in comparison to the untreated control) (Avena [9]; 15 g ai./ha) | herbicidal activity (in words, compared with the sodium salt of (I)) [10] | herbicidal activity (in words, compared with the sodium salt of (I)) [11] | degree of damage to the plants (% damage in comparison to the untreated control) (Bromus [1]; 60 g ai./ha) | degree of damage to the plants (% damage in comparison to the untreated control) (Wheat [2]; 60 g ai./ha) | degree of damage to the plants (% damage in comparison to the untreated control) (Lolium [3]; 60 g ai./ha) | degree of damage to the plants (% damage in comparison to the untreated control) (Agropyron [4]; 60 g ai./ha) | degree of damage to the plants (% damage in comparison to the untreated control) (Alopecurus [5]; 60 g ai./ha) | degree of damage to the plants (% damage in comparison to the untreated control) (Avena [6]; 60 g ai./ha) | other results
CCOc1nn(C(=O)NS(=O)(=O)c2ccccc2C(=O)OC)c(=O)n1C [(B), 2-(2-Methoxycarbonyl-phenylsulphonylaminocarbonyl)-4-methyl-5-ethoxy-2,4-dihydro-3H-1,2,4-triazol-3-one-sodium salt] | not entirely compatible with wheat | 70% | 40% | 70% | 40% | 70% | 60% |  |  |  |  |  |  |  |  | degree of damage to the plants (% damage in comparison to the untreated control) (Bromus [1]; 30 g ai./ha): 80%; degree of damage to the plants (% damage in comparison to the untreated control) (Wheat [2]; 30 g ai./ha): 60%; degree of damage to the plants (% damage in comparison to the untreated control) (Lolium [3]; 30 g ai./ha): 90%; degree of damage to the plants (% damage in comparison to the untreated control) (Agropyron [4]; 30 g ai./ha): 90%; degree of damage to the plants (% damage in comparison to the untreated control) (Alopecurus [5]; 30 g ai./ha): 90%; degree of damage to the plants (% damage in comparison to the untreated control) (Avena [6]; 30 g ai./ha): 90%; compatibility with crop plants (wheat), in words (Wheat [7]; sodium salt of (I) at 15 g/ha to 60 g/ha): not entirely compatible with wheat
CCCOn1c(C)nn(C(=O)NS(=O)(=O)c2ccccc2C(=O)OC)c1=O [(E), 2-(2-Methoxyxcarbonyl-phenylsulphonylaminocarbonyl)-4-propoxy-5-methyl-2,4-dihydro-3H-1,2,4-triazol-3-one] |  |  |  |  |  |  |  | considerably weaker herbicidal activity | considerably weaker herbicidal activity |  |  |  |  |  |  | degree of damage to the plants (% damage in comparison to the untreated control) (Bromus [1]; 250 g ai./ha): 50%; degree of damage to the plants (% damage in comparison to the untreated control) (Wheat [2]; 250 g ai./ha): 0%; degree of damage to the plants (% damage in comparison to the untreated control) (Lolium [3]; 250 g ai./ha): 50%; degree of damage to the plants (% damage in comparison to the untreated control) (Alopecurus [5]; 250 g ai./ha): 70%; degree of damage to the plants (% damage in comparison to the untreated control) (Avena [6]; 250 g ai./ha): 0%
COC(=O)c1ccccc1S(=O)(=O)NC(=O)n1nc(OC(C)C)n(C)c1=O.[Na] [(C), 2-(2-Methoxycarbonyl-phenylsulphonylaminocarbonyl)-4-methyl-5-isopropoxy-2,4-dihydro-3H-1,2,4-triazol-3-one-sodium salt] |  |  |  |  |  |  |  | considerably weaker herbicidal activity | considerably weaker herbicidal activity | 70% | 0% | 70% | 60% | 70% | 50% | 
CCCCOc1nn(C(=O)NS(=O)(=O)c2ccccc2C(=O)OC)c(=O)n1C [(A), 2-(2-Methoxycarbonyl-phenylsulphonylaminocarbonyl)-4-methyl-5-butoxy-2,4-dihydro-3H-1,2,4-triazol-3-one] |  |  |  |  |  |  |  | considerably weaker herbicidal activity | considerably weaker herbicidal activity | 0% | 0% | 0% | 0% | 0% | 50% | degree of damage to the plants (% damage in comparison to the untreated control) (Bromus [12]; 500 g ai./ha): 30%; degree of damage to the plants (% damage in comparison to the untreated control) (Setaria): 0%; degree of damage to the plants (% damage in comparison to the untreated control) (Wheat [7]; 500 g ai./ha): 0%; degree of damage to the plants (% damage in comparison to the untreated control) (Lolium [13]): 0%; degree of damage to the plants (% damage in comparison to the untreated control) (Alopecurus [14]; 500 g ai./ha): 20%; degree of damage to the plants (% damage in comparison to the untreated control) (Avena [9]; 500 g ai./ha): 0%
CCCOc1nn(C(=O)NS(=O)(=O)c2ccccc2C(=O)OC)c(=O)n1CC [(F), 2-(2-Methoxycarbonyl-phenylsulphonylaminocarbonyl)-4-ethyl-5-propoxy-2,4-dihydro-3H-1,2,4-triazol-3-one] | not entirely compatible with wheat | 70% | 0% | 70% | 0% | 0% | 0% | considerably weaker herbicidal activity | considerably weaker herbicidal activity | 50% | 20% | 30% | 50% | 50% | 40% | degree of damage to the plants (% damage in comparison to the untreated control) (Bromus [12]; 15 g ai./ha): 20%; degree of damage to the plants (% damage in comparison to the untreated control) (Alopecurus [14]; 15 g ai./ha): 40%
CCCOc1nn(C(=O)NS(=O)(=O)c2ccccc2C(=O)OCC)c(=O)n1C [(D), 2-(2-Ethoxycarbonyl-phenylsulphonylaminocarbonyl)-4-methyl-5-propoxy-2,4-dihydro-3H-1,2,4-triazol-3-one] |  |  |  |  |  |  |  | considerably weaker herbicidal activity | considerably weaker herbicidal activity | 80% | 0% | 30% | 70% |  | 20% | 
